Laboratory results taken from US11155851B2, “Compounds and methods relating to lysosomal storage disorders” (University of Washington through its Center of …, priority 2013, dated 2021).

Columns and labels:
[1] = target: T1, acid-β-glucocerebrosidase (ABG) (Homo sapiens, UniProt P04062); experiment: Simultaneous detection of multiple enzyme activity in dried blood spots by MS/MS (ABG); assay type: biochemical; settings: Compounds 1 and 7 used simultaneously, substrates 100 μmol/L, dried blood disk, 15 to 24 hours at 37° Celsius
T1 construct: from tissue; host or cells: dried blood spots from adult human venous blood
T1 sequence (P04062 40-536): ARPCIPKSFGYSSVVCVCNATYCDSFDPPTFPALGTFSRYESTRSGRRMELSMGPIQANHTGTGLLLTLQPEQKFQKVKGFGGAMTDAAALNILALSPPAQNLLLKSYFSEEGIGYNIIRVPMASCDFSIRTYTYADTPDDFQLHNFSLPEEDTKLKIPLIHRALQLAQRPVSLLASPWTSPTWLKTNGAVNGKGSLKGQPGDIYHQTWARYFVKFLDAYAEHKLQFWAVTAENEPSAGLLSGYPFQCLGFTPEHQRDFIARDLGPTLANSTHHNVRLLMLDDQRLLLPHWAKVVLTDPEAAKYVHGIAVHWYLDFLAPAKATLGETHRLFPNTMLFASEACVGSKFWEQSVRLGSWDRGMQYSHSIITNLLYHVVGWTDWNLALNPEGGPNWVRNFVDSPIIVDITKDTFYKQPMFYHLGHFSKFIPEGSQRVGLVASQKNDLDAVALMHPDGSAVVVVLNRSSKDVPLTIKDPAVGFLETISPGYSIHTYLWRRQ
Protocol: The substrates of Compounds 1 and 7 are used simultaneously to detect the presence of acid-β-glucocerebrosidase (ABG) and galactocerebroside-β-galactosidase (GALC) respectively. Blood is obtained by venipuncture from consenting adult humans and blotted on filter paper. For each sample, a disk of 3 mm diameter is punched from the areas of dried blood into a well of a 96-well microtiter plate. The blood disk is then incubated directly with an assay solution containing substrates at a final concentration of 100 μmol/L and corresponding internal standards at a final concentration of 1 μmol/L. To the assay solution, a final concentration of 0.5 mol/L sodium acetate with sodium taurocholate buffer is also added (30 μl final assay volume). The assay mixture containing the blood disk is incubated for 15 to 24 hours at 37° Celsius with orbital shaking (150 rpm) in a thermostatic air shaker. After the incubation period, a 100 μl aliquot of 50:50 methanol/ethyl acetate is added to each tube or well to terminate the enzymatic reaction. The reaction is then supplemented with 400 μl HPLC grade ethyl acetate and 200 μl water. […] For mass spectrometry analysis, the electrospray source is operated in positive mode, and the ions are detected in parent-ion scan mode. The amount of enzymatic product is calculated from the ion abundance ratio of the product to the internal standard minus that of a blank.

[2] = target: T1, acid-β-glucocerebrosidase (ABG); experiment: Detection of enzyme activity in dried blood spots by mass spectrometry (ABG substrate); assay type: biochemical; settings: FIG. 6, dried blood disk, substrate 500 μmol/L, 15 to 24 hours at 37° Celsius
Protocol: The substrates of Compounds 1 and 7 are used to detect the presence of acid-β-glucocerebrosidase (ABG) and galactocerebroside-β-galactosidase (GALC) respectively. Blood is obtained by venipuncture from consenting adult humans and blotted on filter paper. For each sample, a disk of 3 mm diameter is punched from the areas of dried blood into a well of a 96-well microtiter plate. The blood disk is then incubated directly with an assay solution containing substrates at a final concentration of 500 μmol/L and corresponding internal standards at a final concentration of 5 μmol/L. To the assay solution, a final concentration of 0.5 mol/L sodium acetate buffer with sodium taurocholate is also added. The assay mixture containing the blood disk is incubated for 15 to 24 hours at 37° Celsius with orbital shaking (150 rpm) in a thermostatic air shaker. After the incubation period, an aliquot of pure methanol is added to each tube or well to terminate the enzymatic reaction. Before going into the mass spectrometer, the incubated reaction mixture is diluted with pure methanol. For the mass spectrometry analysis, the electrospray source is operated in positive mode, and the ions are detected in parent-ion scan mode. The amount of enzymatic product is calculated from the ion abundance ratio of the product to the internal standard minus that of a blank.

CCCCCCCCCCCCC/C=C/C(O)C(CO[C@@H]1OC(CO)[C@@H](O)C(O)C1O)NC(=O)CCCC (some centres unmarked) [Compound 1]
detection of ABG (enzymatic product by MS/MS) [1]: Detection of both ABG and GALC is achieved | improvement in product detection over a similar compound substituting the C5 amido for a C12 amido [2]: 2 fold
